Results from patent publication US7781441B2, “(3,4-dihydro-quinazolin-2-yl)-(2-aryloxy-ethyl)-amine” (Hoffmann-La Roche Inc., priority 2005, dated 2010).

These compounds were tested against T1, recombinant human 5-HT5A receptor (Homo sapiens, UniProt P47898) (assay: [3H]LSD radioligand binding assay). Conditions: [3H]LSD (approximately 1 nM); membranes from transiently expressed 5-HT5A receptors in HEK-EBNA cells; Ki by Cheng-Prussoff equation.
T1 construct: expressed in transfected cells; host or cells: HEK-EBNA (Human Embryonic Kidney-EBNA) cells, transient cDNA expression; membranes
T1 sequence (P47898 whole entry): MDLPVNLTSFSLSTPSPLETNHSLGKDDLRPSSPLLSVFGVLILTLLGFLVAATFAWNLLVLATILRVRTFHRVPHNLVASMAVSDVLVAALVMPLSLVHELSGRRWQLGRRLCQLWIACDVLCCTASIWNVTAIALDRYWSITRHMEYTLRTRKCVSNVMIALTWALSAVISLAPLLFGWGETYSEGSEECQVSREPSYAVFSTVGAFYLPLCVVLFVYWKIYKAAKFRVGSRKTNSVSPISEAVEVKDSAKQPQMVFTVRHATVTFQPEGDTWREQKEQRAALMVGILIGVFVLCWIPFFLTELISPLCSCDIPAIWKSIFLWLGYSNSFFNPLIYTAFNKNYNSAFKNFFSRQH
Description: Compounds of the invention were tested for 5-HT5A activity in the following assay.
A [^3H]LSD radioligand binding assay was used to determine the affinity of the compounds for the recombinant human 5-HT5A receptor, in membranes from transiently (cDNA) expressed 5-HT5A receptors in Human Embryonic Kidney-EBNA (HEK-EBNA) cells. Assay buffer consisted of Tris (50 mM) buffer containing 1 mM EGTA, 10 mM MgCl2 (pH 7.4) and 10 μM pargyline. The binding assay was carried out in 96-well-plates in the presence of [^3H]LSD (approximately 1 nM), approximately 2 μg/well of membrane protein, and 0.5 mg of Ysi-poly-l-lysine SPA beads in a final volume of 200 μl of buffer. Non-specific binding was defined using methiothepin 2 μM. Compounds were tested at 10 concentrations. All assays were conducted in duplicate and repeated at least two times. Assay plates were incubated for 120 min at room temperature before centrifugation. Bound ligand was determined using a Packard Topcount scintillation counter. IC50 values were calculated using a non-linear curve fitting program and Ki values calated using the Cheng-Prussoff equation.
A Ki of 86.7 nM was found for `c1ccc(COc2ccccc2OCCNC2=Nc3ccccc3CN2)cc1` [Example 39, [2-(2-Benzyloxy-phenoxy)-ethyl]-(3,4-dihydro-quinazolin-2-yl)-amine] in this work. A Ki of 25 nM was found for `Cc1ccc2c(c1)CNC(NCCOc1ccccc1)=N2` [Example 4, (6-Methyl-3,4-dihydro-quinazolin-2-yl)-(2-phenoxy-ethyl)-amine] in this work. A Ki of 48.4 nM was found for `Fc1cccc2c1CNC(NCCOc1ccccc1Cl)=N2` [Example 59, [2-(2-Chloro-phenoxy)-ethyl]-(5-fluoro-3,4-dihydro-quinazolin-2-yl)-amine] in this work. A Ki of 19.7 nM was found for `COc1ccccc1OCCNC1=Nc2ccc(C)cc2CN1` [Example 64, [2-(2-Methoxy-phenoxy)-ethyl]-(6-methyl-3,4-dihydro-quinazolin-2-yl)-amine] in this work. A Ki of 82.5 nM was found for `COc1ccc(C)cc1OCCNC1=Nc2ccccc2CN1` [Example 44, (3,4-Dihydro-quinazolin-2-yl)-[2-(2-methoxy-5-methyl-phenoxy)-ethyl]-amine] in this work. A Ki of 38 nM was found for `CCOc1ccccc1OCCNC1=Nc2ccccc2CN1` [Example 8, (3,4-Dihydro-quinazolin-2-yl)-[2-(2-ethoxy-phenoxy)-ethyl]-amine] in this work. A Ki of 89 nM was found for `Fc1ccc(Br)c(OCCNC2=Nc3ccccc3CN2)c1` [Example 46, [2-(2-Bromo-5-fluoro-phenoxy)-ethyl]-(3,4-dihydro-quinazolin-2-yl)-amine] in this work. A Ki of 53.6 nM was found for `COc1ccc2c(c1)CNC(NCCOc1ccccc1OC)=N2` [Example 62, (6-Methoxy-3,4-dihydro-quinazolin-2-yl)-[2-(2-methoxy-phenoxy)-ethyl]-amine] in this work. A Ki of 58.7 nM was found for `C/C=C/c1ccccc1OCCNC1=Nc2ccccc2CN1` [Example 34, (3,4-Dihydro-quinazolin-2-yl)-[2-(2-propenyl-phenoxy)-ethyl]-amine] in this work. A Ki of 7.5 nM was found for `COc1ccccc1OCCNC1=Nc2ccccc2CN1` [Example 1, (3,4-Dihydro-quinazolin-2-yl)-[2-(2-methoxy-phenoxy)-ethyl]-amine] in this work. A Ki of 30 nM was found for `Fc1cccc2c1CNC(NCCOc1ccccc1)=N2` [Example 7, (5-Fluoro-3,4-dihydro-quinazolin-2-yl)-(2-phenoxy-ethyl)-amine hydroiodide] in this work. A Ki of 72 nM was found for `FC(F)(F)Oc1ccccc1OCCNC1=Nc2ccccc2CN1` [Example 13, (3,4-Dihydro-quinazolin-2-yl)-[2-(2-trifluoromethoxy-phenoxy)-ethyl]-amine] in this work. A Ki of 96 nM was found for `COc1cccc(OCCNC2=Nc3ccccc3CN2)c1` [Example 16, (3,4-Dihydro-quinazolin-2-yl)-[2-(3-methoxy-phenoxy)-ethyl]-amine] in this work. A Ki of 76 nM was found for `Clc1ccc2c(c1Cl)CNC(NCCOc1ccccc1)=N2` [Example 14, (5,6-Dichloro-3,4-dihydro-quinazolin-2-yl)-(2-phenoxy-ethyl)-amine hydroiodide] in this work. A Ki of 46 nM was found for `Cc1cccc2c1CNC(NCCOc1ccccc1)=N2` [Example 10, (5-Methyl-3,4-dihydro-quinazolin-2-yl)-(2-phenoxy-ethyl)-amine hydroiodide] in this work. A Ki of 90.3 nM was found for `COc1cccc(OC)c1OCCNC1=Nc2ccccc2CN1` [Example 41, (3,4-Dihydro-quinazolin-2-yl)-[2-(2,6-dimethoxy-phenoxy)-ethyl]-amine] in this work. A Ki of 76 nM was found for `COc1ccc2c(c1)CNC(NCCOc1ccccc1)=N2` [Example 15, (6-Methoxy-3,4-dihydro-quinazolin-2-yl)-(2-phenoxy-ethyl)-amine] in this work. A Ki of 100 nM was found for `Clc1cccc(OCCNC2=Nc3ccccc3CN2)c1` [Example 18, [2-(3-Chloro-phenoxy)-ethyl]-(3,4-dihydro-quinazolin-2-yl)-amine] in this work. A Ki of 58 nM was found for `CC1NC(NCCOc2ccccc2)=Nc2ccccc21` (stereo not shown) [Example 11, (4-Methyl-3,4-dihydro-quinazolin-2-yl)-(2-phenoxy-ethyl)-amine hydroiodide] in this work. A Ki of 83.1 nM was found for `COc1ccc2c(c1)CNC(NCCOc1ccccc1Cl)=N2` [Example 56, [2-(2-Chloro-phenoxy)-ethyl]-(6-methoxy-3,4-dihydro-quinazolin-2-yl)-amine] in this work. A Ki of 19.9 nM was found for `COc1ccccc1OCCNC1=Nc2ccc(F)cc2CN1` [Example 29, (6-Fluoro-3,4-dihydro-quinazolin-2-yl)-[2-(2-methoxy-phenoxy)-ethyl]-amine] in this work. A Ki of 53 nM was found for `Clc1cccc2c1CNC(NCCOc1ccccc1)=N2` [Example 9, (5-Chloro-3,4-dihydro-quinazolin-2-yl)-(2-phenoxy-ethyl)-amine hydroiodide] in this work. A Ki of 42.9 nM was found for `COc1cccc(F)c1OCCNC1=Nc2ccccc2CN1` [Example 45, (3,4-Dihydro-quinazolin-2-yl)-[2-(2-fluoro-6-methoxy-phenoxy)-ethyl]-amine] in this work. A Ki of 35.7 nM was found for `CSc1ccccc1OCCNC1=Nc2ccccc2CN1` [Example 35, (3,4-Dihydro-quinazolin-2-yl)-[2-(2-methylsulfanyl-phenoxy)-ethyl]-amine] in this work. A Ki of 18 nM was found for `Fc1ccc2c(c1)CNC(NCCOc1ccccc1)=N2` [Example 2, (6-Fluoro-3,4-dihydro-quinazolin-2-yl)-(2-phenoxy-ethyl)-amine] in this work. A Ki of 22.2 nM was found for `Brc1ccccc1OCCNC1=Nc2ccccc2CN1` [Example 37, [2-(2-Bromo-phenoxy)-ethyl]-(3,4-dihydro-quinazolin-2-yl)-amine] in this work. A Ki of 53.8 nM was found for `Cc1ccc2c(c1)CNC(NCCOc1ccccc1Cl)=N2` [Example 58, [2-(2-Chloro-phenoxy)-ethyl]-(6-methyl-3,4-dihydro-quinazolin-2-yl)-amine] in this work. A Ki of 96 nM was found for `Fc1cccc(OCCNC2=Nc3ccccc3CN2)c1` [Example 17, (3,4-Dihydro-quinazolin-2-yl)-[2-(3-fluoro-phenoxy)-ethyl]-amine] in this work. A Ki of 54 nM was found for `N#Cc1ccccc1OCCNC1=Nc2ccccc2CN1` [Example 38, 2-[2-(3,4-Dihydro-quinazolin-2-ylamino)-ethoxy]-benzonitrile] in this work. A Ki of 23.6 nM was found for `COc1ccccc1OCCNC1=Nc2cccc(F)c2CN1` [Example 67, (5-Fluoro-3,4-dihydro-quinazolin-2-yl)-[2-(2-methoxy-phenoxy)-ethyl]-amine] in this work. A Ki of 34 nM was found for `Fc1ccccc1OCCNC1=Nc2ccccc2CN1` [Example 6, (3,4-Dihydro-quinazolin-2-yl)-[2-(2-fluoro-phenoxy)-ethyl]-amine] in this work. A Ki of 42 nM was found for `c1ccc(OCCNC2=Nc3ccccc3CN2)cc1` [Example 5, (3,4-Dihydro-quinazolin-2-yl)-(2-phenoxy-ethyl)-amine hydroiodide] in this work. A Ki of 19 nM was found for `Clc1ccccc1OCCNC1=Nc2ccccc2CN1` [Example 3, [2-(2-Chloro-phenoxy)-ethyl]-(3,4-dihydro-quinazolin-2-yl)-amine] in this work. A Ki of 64 nM was found for `Cc1cccc(OCCNC2=Nc3ccccc3CN2)c1` [Example 12, (3,4-Dihydro-quinazolin-2-yl)-(2-m-tolyloxy-ethyl)-amine] in this work.
